Source: ChEMBL document CHEMBL1201862, “PubChem BioAssay data set” (2004)
The source made the active and inactive calls.

Columns and labels:
[1] = system: HEK293; assay: inhibition of NOD1-driven NF-kB reporter – cell-based, luminescence, uHTS, primary screen (AID 1578); assay type: functional; details: Homo sapiens
[2] = system: HEK293; assay: NOD2 signaling inhibitors in MDP-stimulated cells, cell-based, uHTS, luminescence (AID 2001); assay type: functional; details: Homo sapiens
[3] = system: HEK293; assay: cells; assay type: functional, cell-based; details: Homo sapiens
[4] = system: HEK293; assay: cells; assay type: functional, cell-based; details: Homo sapiens; remark: listed apart in the source
[5] = biological target: T1, Peroxisome proliferator-activated receptor gamma/Nuclear receptor coactivator 3 (Homo sapiens, UniProt P37231); assay: TR-FRET dose response biochemical High Throughput Screening assay for agonists of the steroid receptor coactivator 3 (SRC-3) recruitment by the peroxisome proliferator-activated receptor gamma (PPAR gamma): non-selective agonists. [Related pubchem assays: 1301 (Confirmation screen.), 1048 (Primary screen.)]; assay type: functional
[6] = biological target: T2, Peroxisome proliferator-activated receptor gamma/Nuclear receptor coactivator 2 (Homo sapiens, UniProt P37231); assay: (§1) TR-FRET dose response biochemical High Throughput Screening assay for agonists of the steroid receptor coactivator 2 (SRC-2) recruitment by the peroxisome proliferator-activated receptor gamma (PPAR gamma): non-selective agonists. [Related pubchem assays: 1297, 1032 ]; assay type: functional
[7] = biological target: T3, Peroxisome proliferator-activated receptor gamma/Nuclear receptor coactivator 1 (Homo sapiens, UniProt P37231); assay: as §1, with “1 (SRC-1)” for “2 (SRC-2)”, “assays (depositor defined):AID1300, AID1808, AID504735, AID631]” for “assays: 1297, 1032 ]”; assay type: protein assay
[8] = biological target: T4, Short transient receptor potential channel 4 (Mus musculus, UniProt Q9QUQ5); assay: block of DAMGO-driven TRPC4 calcium entry – cell-based, HEK293 TRPC4/mu-opioid, Fluo-4 calcium, dose response (AID 434942); assay type: functional;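 further: potency of inhibitors blocking the TRPC4 calcium response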
T4 sequence (Q9QUQ5 whole entry): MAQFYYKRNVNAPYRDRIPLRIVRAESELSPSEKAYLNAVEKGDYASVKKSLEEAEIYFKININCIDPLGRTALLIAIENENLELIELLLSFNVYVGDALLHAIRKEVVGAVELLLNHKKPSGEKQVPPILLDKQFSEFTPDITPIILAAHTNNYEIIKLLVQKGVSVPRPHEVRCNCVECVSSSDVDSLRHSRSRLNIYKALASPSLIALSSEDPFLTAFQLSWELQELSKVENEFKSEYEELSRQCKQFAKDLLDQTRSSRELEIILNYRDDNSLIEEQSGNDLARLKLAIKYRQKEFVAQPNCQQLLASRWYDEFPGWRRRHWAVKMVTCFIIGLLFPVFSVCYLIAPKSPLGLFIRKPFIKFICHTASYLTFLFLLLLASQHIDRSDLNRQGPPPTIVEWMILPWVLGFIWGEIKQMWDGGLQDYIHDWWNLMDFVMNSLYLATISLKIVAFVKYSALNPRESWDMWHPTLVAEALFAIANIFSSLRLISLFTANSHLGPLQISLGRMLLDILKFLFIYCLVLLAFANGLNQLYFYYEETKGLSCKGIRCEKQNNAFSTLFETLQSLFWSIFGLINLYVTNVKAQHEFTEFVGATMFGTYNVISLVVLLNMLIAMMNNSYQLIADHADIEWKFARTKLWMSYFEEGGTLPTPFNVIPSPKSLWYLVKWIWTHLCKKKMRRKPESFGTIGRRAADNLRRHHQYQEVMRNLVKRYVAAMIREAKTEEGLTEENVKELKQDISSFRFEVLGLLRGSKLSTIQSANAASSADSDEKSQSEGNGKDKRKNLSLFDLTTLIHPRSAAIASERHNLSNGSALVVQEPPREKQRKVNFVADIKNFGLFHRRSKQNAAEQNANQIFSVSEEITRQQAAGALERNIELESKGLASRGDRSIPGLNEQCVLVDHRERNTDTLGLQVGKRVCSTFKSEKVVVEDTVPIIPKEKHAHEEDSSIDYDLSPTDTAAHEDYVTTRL

[9] = biological target: T2, Peroxisome proliferator-activated receptor gamma/Nuclear receptor coactivator 2; assay type: functional
[10] = biological target: T1, Peroxisome proliferator-activated receptor gamma/Nuclear receptor coactivator 3; assay type: functional
[11] = biological target: T3, Peroxisome proliferator-activated receptor gamma/Nuclear receptor coactivator 1; assay type: functional
[12] = biological target: T5, Voltage-gated N-type calcium channel alpha-1B subunit/Amyloid beta A4 precursor protein-binding family A member 1 (Homo sapiens, UniProt Q00975+Q02410); assay type: protein assay
[13] = biological target: T5, Voltage-gated N-type calcium channel alpha-1B subunit/Amyloid beta A4 precursor protein-binding family A member 1; assay type: protein assay; remark: listed apart in the source
[14] = microbe, parasite or virus in culture; assay type: functional; details: Mycobacterium tuberculosis
[15] = biological target: T4, Short transient receptor potential channel 4; assay: calcium entry via TRPC4 opening agents – cell-based, HEK293 TRPC4/mu-opioid, Fluo-4 calcium, dose response (AID 434937); assay type: functional
[16] = biological target: T6, Cytochrome P450 1A2 (Homo sapiens, UniProt P05177);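 further: PubChem cytochrome P450 panel assay, CYP1A2 panel member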
T6 sequence (P05177 whole entry): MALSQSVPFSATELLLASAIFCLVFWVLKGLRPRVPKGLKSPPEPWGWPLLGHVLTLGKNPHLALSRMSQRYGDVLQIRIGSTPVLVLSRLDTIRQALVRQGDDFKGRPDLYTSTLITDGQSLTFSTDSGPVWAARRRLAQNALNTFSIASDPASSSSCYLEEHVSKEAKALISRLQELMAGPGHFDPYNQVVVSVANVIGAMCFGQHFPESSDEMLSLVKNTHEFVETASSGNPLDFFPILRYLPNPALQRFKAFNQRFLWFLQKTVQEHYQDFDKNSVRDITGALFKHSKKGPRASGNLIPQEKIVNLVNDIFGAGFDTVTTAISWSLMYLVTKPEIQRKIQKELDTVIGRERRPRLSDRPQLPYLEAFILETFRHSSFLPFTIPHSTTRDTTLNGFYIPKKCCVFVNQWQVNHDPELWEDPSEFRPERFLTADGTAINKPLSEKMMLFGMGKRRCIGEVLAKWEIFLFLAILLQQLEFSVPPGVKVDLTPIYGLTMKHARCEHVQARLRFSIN

[17] = biological target: Cytochrome P450 2C9 (Homo sapiens, UniProt P11712)
[18] = Trypanosoma cruzi growth suppression in host cells – NIH3T3 host cells, beta-gal luminescence, confirmation (AID 2044); assay type: functional, cell-based;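 further: intracellular parasites grown in NIH/3T3 mouse fibroblasts as host cells; luminescent beta-galactosidase reporter signal from transgenic T. cruzi replicating inside host cells; inhibitors lower the luminescence signal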
[19] = NIH3T3 cell viability loss – ATP luminescence, mouse fibroblasts, counter-screen, dose response (AID 2010); assay type: functional, cell-based;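 further: cells exposed to compound for about 90 hours before reading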
[20] = system: BJ; assay: growth inhibition of engineered Ras-driven BJ cells – cell-based, alamar blue fluorescence, cherrypicked samples, dose response (AID 2631); assay type: functional; details: Homo sapiens;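 further: confirmatory dose-response assay in RAS-dependent BJ fibroblasts engineered with TERT, LT and ST, with cytotoxicity read by fluorescence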
[21] = Luminescence Cell-Based Dose Confirmation HTS to Identify Inhibitors of Platelet Dense Granule Release. [Related pubchem assays: 1663 (Primary HTS), 1678 (Summary of Project)]; assay type: functional
[22] = biological target: Luciferin 4-monooxygenase (Photinus pyralis, UniProt P08659); assay: inhibition of purified Photinus pyralis luciferase – biochemical, luminescence, dose response (AID 1891)
Luciferin 4-monooxygenase, sequence (P08659 whole entry): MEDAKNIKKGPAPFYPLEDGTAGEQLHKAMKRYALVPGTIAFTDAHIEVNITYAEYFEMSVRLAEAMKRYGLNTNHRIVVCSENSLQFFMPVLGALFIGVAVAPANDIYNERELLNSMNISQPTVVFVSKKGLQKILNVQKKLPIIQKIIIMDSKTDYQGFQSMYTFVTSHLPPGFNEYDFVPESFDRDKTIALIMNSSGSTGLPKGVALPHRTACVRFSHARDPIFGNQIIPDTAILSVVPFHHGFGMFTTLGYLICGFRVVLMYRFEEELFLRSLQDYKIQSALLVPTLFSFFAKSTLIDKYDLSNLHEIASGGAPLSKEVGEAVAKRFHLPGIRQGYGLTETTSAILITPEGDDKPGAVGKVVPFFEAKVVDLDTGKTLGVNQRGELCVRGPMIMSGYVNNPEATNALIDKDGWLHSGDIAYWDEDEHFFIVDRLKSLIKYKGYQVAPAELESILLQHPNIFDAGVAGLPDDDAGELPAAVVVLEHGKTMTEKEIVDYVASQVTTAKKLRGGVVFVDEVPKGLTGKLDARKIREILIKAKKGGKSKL

T3 sequence (P37231 whole entry): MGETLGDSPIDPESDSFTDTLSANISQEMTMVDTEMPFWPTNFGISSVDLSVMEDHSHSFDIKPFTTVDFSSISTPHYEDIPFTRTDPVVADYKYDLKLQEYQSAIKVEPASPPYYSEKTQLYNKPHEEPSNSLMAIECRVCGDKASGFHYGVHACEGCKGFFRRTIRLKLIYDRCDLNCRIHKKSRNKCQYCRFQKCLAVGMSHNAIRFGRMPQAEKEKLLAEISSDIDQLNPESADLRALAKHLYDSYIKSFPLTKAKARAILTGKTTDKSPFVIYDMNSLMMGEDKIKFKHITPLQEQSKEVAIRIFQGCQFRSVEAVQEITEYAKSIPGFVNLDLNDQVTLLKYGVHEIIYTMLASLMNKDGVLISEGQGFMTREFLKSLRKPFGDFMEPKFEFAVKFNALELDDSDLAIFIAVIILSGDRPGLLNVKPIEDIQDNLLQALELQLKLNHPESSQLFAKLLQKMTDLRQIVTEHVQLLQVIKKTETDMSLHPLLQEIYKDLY
T3 sequence (Q15788 whole entry, further chain): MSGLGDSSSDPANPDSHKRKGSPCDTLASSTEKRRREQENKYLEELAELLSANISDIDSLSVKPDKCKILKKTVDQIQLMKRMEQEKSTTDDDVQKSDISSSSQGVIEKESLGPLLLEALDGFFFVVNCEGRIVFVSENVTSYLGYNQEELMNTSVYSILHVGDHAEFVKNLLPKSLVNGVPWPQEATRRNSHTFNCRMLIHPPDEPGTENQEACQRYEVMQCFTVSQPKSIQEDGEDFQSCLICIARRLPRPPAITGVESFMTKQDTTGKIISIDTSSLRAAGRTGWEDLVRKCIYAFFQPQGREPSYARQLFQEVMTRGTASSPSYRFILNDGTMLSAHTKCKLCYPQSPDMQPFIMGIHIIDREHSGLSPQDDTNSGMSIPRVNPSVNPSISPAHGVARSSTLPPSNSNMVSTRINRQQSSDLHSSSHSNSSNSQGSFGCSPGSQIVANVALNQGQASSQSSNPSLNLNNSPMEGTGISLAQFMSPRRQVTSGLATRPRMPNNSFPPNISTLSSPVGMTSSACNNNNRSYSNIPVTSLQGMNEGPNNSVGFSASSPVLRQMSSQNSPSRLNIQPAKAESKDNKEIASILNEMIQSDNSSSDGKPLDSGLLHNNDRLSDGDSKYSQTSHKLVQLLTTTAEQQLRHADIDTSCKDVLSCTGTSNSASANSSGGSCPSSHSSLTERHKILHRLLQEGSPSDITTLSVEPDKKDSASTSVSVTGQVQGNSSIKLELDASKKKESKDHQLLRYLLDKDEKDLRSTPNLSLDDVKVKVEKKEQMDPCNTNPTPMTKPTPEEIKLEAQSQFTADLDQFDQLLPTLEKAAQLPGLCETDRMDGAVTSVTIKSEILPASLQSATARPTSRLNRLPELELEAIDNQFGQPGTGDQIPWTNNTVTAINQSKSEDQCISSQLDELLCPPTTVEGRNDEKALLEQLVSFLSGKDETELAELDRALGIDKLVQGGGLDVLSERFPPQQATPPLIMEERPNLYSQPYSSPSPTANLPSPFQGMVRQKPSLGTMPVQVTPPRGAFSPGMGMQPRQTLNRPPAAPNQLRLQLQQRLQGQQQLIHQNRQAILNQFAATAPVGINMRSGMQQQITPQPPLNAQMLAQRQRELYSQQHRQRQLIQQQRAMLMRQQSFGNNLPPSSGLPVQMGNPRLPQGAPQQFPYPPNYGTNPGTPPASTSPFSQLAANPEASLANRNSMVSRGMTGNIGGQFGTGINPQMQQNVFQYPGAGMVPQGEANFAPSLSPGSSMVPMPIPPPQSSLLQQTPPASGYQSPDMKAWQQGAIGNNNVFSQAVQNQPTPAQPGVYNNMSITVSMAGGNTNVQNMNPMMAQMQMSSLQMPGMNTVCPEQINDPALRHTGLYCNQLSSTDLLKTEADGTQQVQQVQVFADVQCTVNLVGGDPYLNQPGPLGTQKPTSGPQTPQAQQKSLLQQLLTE
T2 sequence (P37231 whole entry): as the sequence (P37231 whole entry) above
T2 sequence (Q15596 whole entry, further chain): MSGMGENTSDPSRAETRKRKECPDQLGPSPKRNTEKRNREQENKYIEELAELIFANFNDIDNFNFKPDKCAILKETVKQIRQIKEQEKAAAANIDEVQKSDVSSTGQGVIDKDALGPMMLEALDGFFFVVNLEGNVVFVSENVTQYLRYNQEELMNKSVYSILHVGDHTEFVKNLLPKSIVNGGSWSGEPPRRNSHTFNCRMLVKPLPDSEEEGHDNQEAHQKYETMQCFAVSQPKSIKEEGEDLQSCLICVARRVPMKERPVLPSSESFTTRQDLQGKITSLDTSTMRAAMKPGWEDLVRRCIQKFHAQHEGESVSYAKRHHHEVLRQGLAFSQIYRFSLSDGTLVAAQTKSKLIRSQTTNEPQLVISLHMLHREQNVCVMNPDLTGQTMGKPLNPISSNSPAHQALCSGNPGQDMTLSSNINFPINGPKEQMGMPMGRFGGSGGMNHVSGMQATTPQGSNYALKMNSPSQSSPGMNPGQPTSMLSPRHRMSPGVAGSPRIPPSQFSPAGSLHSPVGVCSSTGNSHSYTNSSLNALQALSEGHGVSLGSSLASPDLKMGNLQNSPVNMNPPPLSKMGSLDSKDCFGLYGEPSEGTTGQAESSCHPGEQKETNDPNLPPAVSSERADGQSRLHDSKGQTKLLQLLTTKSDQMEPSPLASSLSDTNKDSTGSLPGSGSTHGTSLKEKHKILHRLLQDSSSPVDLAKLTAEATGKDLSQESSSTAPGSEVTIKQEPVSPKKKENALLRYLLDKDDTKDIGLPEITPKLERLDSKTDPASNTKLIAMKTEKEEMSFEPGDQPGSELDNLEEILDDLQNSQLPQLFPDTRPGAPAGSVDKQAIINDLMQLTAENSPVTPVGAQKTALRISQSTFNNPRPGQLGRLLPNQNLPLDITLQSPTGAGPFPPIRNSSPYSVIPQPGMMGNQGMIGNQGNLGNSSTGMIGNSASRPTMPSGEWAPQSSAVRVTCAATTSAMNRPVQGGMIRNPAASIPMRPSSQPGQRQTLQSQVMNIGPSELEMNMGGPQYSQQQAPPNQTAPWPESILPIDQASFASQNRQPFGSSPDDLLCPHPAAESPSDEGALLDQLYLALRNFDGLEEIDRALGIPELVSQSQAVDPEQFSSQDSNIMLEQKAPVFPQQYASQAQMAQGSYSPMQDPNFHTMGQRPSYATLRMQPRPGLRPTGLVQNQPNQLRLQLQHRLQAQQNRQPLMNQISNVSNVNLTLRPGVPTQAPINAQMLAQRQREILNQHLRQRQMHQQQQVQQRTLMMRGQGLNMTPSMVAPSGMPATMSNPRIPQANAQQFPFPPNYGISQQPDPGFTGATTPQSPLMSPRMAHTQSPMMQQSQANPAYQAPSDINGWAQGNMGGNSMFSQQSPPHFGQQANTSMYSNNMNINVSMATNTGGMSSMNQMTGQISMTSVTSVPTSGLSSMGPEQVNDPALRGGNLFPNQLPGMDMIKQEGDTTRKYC
Cytochrome P450 2C9, sequence (P11712 whole entry): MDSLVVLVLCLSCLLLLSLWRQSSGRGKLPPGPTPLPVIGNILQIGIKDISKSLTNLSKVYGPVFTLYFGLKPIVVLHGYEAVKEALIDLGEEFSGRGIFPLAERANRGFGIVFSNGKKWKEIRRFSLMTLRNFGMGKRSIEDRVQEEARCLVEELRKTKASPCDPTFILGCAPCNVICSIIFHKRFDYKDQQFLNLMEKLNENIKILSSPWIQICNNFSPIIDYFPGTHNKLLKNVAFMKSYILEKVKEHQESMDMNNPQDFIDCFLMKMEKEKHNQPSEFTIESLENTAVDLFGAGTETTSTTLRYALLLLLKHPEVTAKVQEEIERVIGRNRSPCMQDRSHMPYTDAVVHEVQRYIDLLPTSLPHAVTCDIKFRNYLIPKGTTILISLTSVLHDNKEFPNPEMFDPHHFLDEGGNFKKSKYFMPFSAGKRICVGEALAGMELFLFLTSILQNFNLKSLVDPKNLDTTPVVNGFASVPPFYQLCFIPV

Which results are given for `COc1ccc(NS(=O)(=O)c2ccc3c(c2)Cc2ccccc2-3)cn1`?
EC50 [1]: 5.22 µM (active); IC50 [2]: 8.27 µM (active); IC50 [3]: 9.79 µM (active); IC50 [4]: > 20 µM (inactive)

Which results are given for `N#Cc1c(Cl)nc(SCc2ccccc2)nc1-c1ccccc1`?
EC50 [5]: > 79.4 µM (not active); EC50 [6]: 5.16 µM (active); EC50 [7]: 4.02 µM (active)

With `Cc1cc(Cl)c2oc(C(=O)N(C)Cc3nccn3C)c(C)c2c1` as the compound, how does the EC50 [8] read?
The EC50 was 0.531 µM (active).

Which results are given for `O=C(NCc1ccc2c(c1)OCO2)Nc1ccc2nsnc2c1`?
EC50 [9]: 17.8 µM (not active); EC50 [10]: 29.8 µM (not active); EC50 [11]: 20.4 µM (not active)

Which results are given for `C=CCOc1ccc(/C=C2\SC(=S)N(N3CCOCC3)C2=O)cc1`?
IC50 [12]: 4.43 µM (active); IC50 [13]: > 50 µM (inactive)

Which results are given for `CCc1ccc(-c2cc(C)no2)cc1S(=O)(=O)NCCCN1CCN(c2ccccc2)CC1`?
EC50 [1]: 6.88 µM (active); IC50 [2]: 4.26 µM (active); IC50 [3]: 4.42 µM (active); CC50 [14]: 30.9 µM (active); IC50 [4]: 7.44 µM (active)

Which results are given for `CCn1c(N2CCN(C(=O)Nc3ccc(F)cc3)CC2)nc2ccccc21`?
EC50 [15]: 0.944 µM (active); AC50 [16]: 20 µM (inconclusive); AC50 [17]: inconclusive

For `COc1cc(CNCCCN2CCOCC2)cc(Br)c1OCc1ccc(Cl)cc1`, which EC50 [8] is on record?
The EC50 was 5.96 µM (active).

What about the EC50 [18] of the same compound?
The EC50 was 0.531 µM (active).

What about the EC50 [19] of the same compound?
The EC50 was 24 µM (active).

Which EC50 [15] does the source give for `CC1CC(C)CN(CCCNC(=O)Cn2cccc2C(=O)c2ccccc2)C1` (stereo unspecified) here?
The EC50 was 1.19 µM (active).

Which EC50 [5] does the source give for `O=c1c2cn[nH]c2[nH]c(=S)n1-c1cccc2ccccc12` here?
Its EC50 is > 79.4 µM (not active).

What about the EC50 [6] of the same compound?
Its EC50 is > 79.4 µM (not active).

And the EC50 [7]?
The EC50 was > 79.4 µM (inactive).

For `COc1ccc2nc(NC(=O)c3ccoc3C)sc2c1`, which EC50 [20] is on record?
Its EC50 is > 133 µM (inactive).

And the EC50 [21]?
The EC50 was 0.468 µM (active).

What about the EC50 [22] of the same compound?
The EC50 was 0.263 µM (active).
